These are literature values, as cited in patent publication US20100113605A1 (priority 2007, published 2010).

One data set deals with rat striatal slices. The following applies: for Percentage increase in [^3H]dopamine release: mean ± SEM (n ≧ 4), NS = not significantly different from basal [^3H]dopamine overflow; for release of [^3H]dopamine from superfused rat striatal slices: low (10^−7M) and high (10^−5M) concentration.
For data set [1] the following is noted: in vivo.
The target of a further data set is DAT (Rattus norvegicus, UniProt P23977). The following applies: for Site of action: 'Intraneuronal' cell continues 'via DAT'; for Pharmacodynamics of effect on synaptic [DA]: [DA] = dopamine concentration, cell wraps, ends with 'increases'; for Firing dependent effect on synaptic [DA]: in vivo.
In data set [2] the test system is electrically-evoked levels of extracellular dopamine in the nucleus accumbens. To be noted: 100 nmol icv, 1 day after injection.
Data set [3] relates to extraneuronal dopamine concentrations in the nucleus accumbens.
Data set [4] relates to extraneuronal dopamine in the nucleus accumbens. To be noted: d-amphetamine 0.5 mg/kg s.c.; tetrodotoxin 1×10^−6M.

Read-outs that look alike come from different tables or passages of the source.

Sequence of DAT (P23977 whole entry): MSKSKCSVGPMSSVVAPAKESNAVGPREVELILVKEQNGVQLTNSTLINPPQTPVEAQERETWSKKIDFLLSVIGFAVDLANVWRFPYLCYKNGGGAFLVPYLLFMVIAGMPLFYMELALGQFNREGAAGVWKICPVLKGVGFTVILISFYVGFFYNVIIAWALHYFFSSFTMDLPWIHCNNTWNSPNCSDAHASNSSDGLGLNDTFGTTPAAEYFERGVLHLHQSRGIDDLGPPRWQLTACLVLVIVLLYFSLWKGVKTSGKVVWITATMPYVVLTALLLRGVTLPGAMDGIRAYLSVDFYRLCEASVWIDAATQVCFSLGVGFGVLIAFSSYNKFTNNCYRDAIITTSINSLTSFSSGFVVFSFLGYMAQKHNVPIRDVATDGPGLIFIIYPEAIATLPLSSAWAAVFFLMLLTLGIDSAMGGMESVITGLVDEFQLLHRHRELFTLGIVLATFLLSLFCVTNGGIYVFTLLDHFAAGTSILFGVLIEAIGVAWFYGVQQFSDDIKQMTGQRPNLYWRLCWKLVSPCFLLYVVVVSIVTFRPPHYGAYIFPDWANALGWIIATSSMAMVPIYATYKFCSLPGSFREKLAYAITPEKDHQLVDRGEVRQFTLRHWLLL

On to `COC(=O)C(c1ccccc1)C1CCCCN1` (racemic) [Methylphenidate, dl-threo-methylphenidate], for which the “Percentage increase in [^3H]dopamine release” value (from here on “Percentage increase”) with rat striatal slices (10^−5M) was 24 ± 7 %. For the same molecule, in the data set with rat striatal slices (10^−5M, listed as methylphenidate), the “Percentage increase” value is recorded as “statistically significant increase”. For the same molecule, the “Percentage increase” value in the data set on rat striatal slices (10^−7M) is listed as “no stimulation”. In data set [1], the Euphoriant/psychostimulant result is listed as “Yes”. At DAT, the Site of action entry was “Extraneuronal”; the “Pharmacodynamics of effect on synaptic [DA]” value (“Pharmacodynamics of effect” below) is recorded as “Rapid, very large”; the “Firing dependent effect on synaptic [DA]” value is “Yes”.
Turning to `CC(N)Cc1ccccc1` (centres unmarked) [Amphetamine], the Euphoriant/psychostimulant result in data set [1] is “Yes”. Besides, on DAT, the Site of action entry is “Intraneuronal”; the “Pharmacodynamics of effect” value was “Rapid, very large”; the “Firing dependent effect on synaptic [DA]” value was “No”.
Regarding `CNC(CC(C)C)C1(c2ccc(Cl)cc2)CCC1` (centres unmarked) [BTS 54 354, N-{1-[1-(4-chlorophenyl)cyclobutyl]-3-methylbutyl}-N-methylamine], in the data set on rat striatal slices, the “release of [^3H]dopamine from superfused rat striatal slices” value (from here on “release of [^3H]dopamine”) is on record as “did not release”.
Turning to `CC(C)CC(N)C1(c2ccc(Cl)cc2)CCC1` (centres unmarked) [BTS 54 505, 1-[1-(4-chlorophenyl)cyclobutyl]-3-methylbutylamine], in the data set with rat striatal slices, the “release of [^3H]dopamine” value is on record as “did not release”.
As for `CC(NC(C)(C)C)C(=O)c1cccc(Cl)c1` (centres unmarked) [Bupropion, bupropion], the “release of [^3H]dopamine” value in the data set with rat striatal slices is “did not release”. Moreover, at DAT, the Site of action result was “Extraneuronal”; the “Pharmacodynamics of effect” value is reported as “Gradual, moderate,”; the “Firing dependent effect on synaptic [DA]” value was “Yes”.
Turning to `CNC(C)Cc1ccc2c(c1)OCO2` (centres unmarked) [MDMA, methylenedioxymethamphetamine], the Euphoriant/psychostimulant result in data set [1] is reported as “Yes”. Also, on DAT, the Site of action result was “Intraneuronal”; the “Pharmacodynamics of effect” value is on record as “Rapid, very large”; the “Firing dependent effect on synaptic [DA]” value is given as “No”.
With `CN[C@@H](C)Cc1ccccc1` [Methamphetamine, methamphetamine], the “Percentage increase” value in the data set on rat striatal slices (10^−5M) is 140 ± 10 %. The “Percentage increase” value in the data set with rat striatal slices (10^−7M) is on record as 37 ± 10 %. Moreover, the “release of [^3H]dopamine” value in the data set on rat striatal slices is listed as “dose-dependently released”. The Euphoriant/psychostimulant entry in data set [1] is “Yes”. Besides, on DAT, the Site of action entry is on record as “Intraneuronal”; the “Pharmacodynamics of effect” value is listed as “Rapid, very large”; the “Firing dependent effect on synaptic [DA]” value was “No”.
Turning to `CN1C2CCC1C(C(=O)OCc1ccc(N=C=S)cc1)C(c1ccc(Cl)cc1)C2.Cl` (stereo not drawn) [RTI-76, 3β-(ρ-chlorophenyl)tropan-2α-carboxylic acid ρ-isothio-cyanatophenylmethyl ester hydrochloride], the “extracellular concentration of dopamine in the nucleus accumbens, electrically evoked” value in data set [2] was “increases the extracellular concentration of dopamine in the nucleus accumbens in a frequency-dependent manner”.
In the case of `CC(C)CC(N(C)C)C1(c2ccc(Cl)cc2)CCC1` (centres unmarked) [Sibutramine, sibutramine], in data set [3] (2.0 mg/kg ip, freely-moving rats), the “increase in extraneuronal concentration of dopamine in the nucleus accumbens” value was “failed to reach statistical significance”. Besides, the “time of maximum increase in extraneuronal dopamine” value in data set [3] (6.0 mg/kg ip) is given as 60 min. The “maximum increase in extraneuronal concentration of dopamine in the nucleus accumbens” value in data set [3] (6.0 mg/kg ip, at 60 min, freely-moving rats, P<0.001) is recorded as 231±87%. In addition, the “release of [^3H]dopamine” value in the data set on rat striatal slices is listed as “did not release”. Moreover, in data set [1], the Euphoriant/psychostimulant entry is recorded as “No”. Besides, at DAT, the Site of action result is listed as “Extraneuronal”; the “Pharmacodynamics of effect” value was “Gradual, moderate,”; the “Firing dependent effect on synaptic [DA]” value is on record as “Yes”.
Take `C[C@H](N)Cc1ccccc1` [d-Amphetamine, d-amphetamine]: the “peak increase in extraneuronal dopamine concentration in the nucleus accumbens” value in data set [3] (0.5 mg/kg ip) is given as 242±89%; in data set [3] (1.5 mg/kg ip) it was 603±319%. For the same molecule, in data set [3] (both doses, 0.5 and 1.5 mg/kg ip), the “time of maximum increase in extraneuronal dopamine” value was 40 min. The “Percentage increase” value is on record as 138 ± 15 % in the data set on rat striatal slices (10^−5M) and 56 ± 9 % in the data set on rat striatal slices (10^−7M). In addition, in the data set with rat striatal slices, the “release of [^3H]dopamine” value is recorded as “dose-dependently released”. In data set [4], the “effect of tetrodotoxin in the dialysate on the drug-evoked increase in extraneuronal dopamine” value is reported as “not altered”.
